Like-named read-outs stand apart in the source and are kept apart here.
Experiments:
H358 cells = test: Detection of cell proliferation inhibition, H358 (Cell-titer Glo, 96 h); format: cell-based
Description: H358 cells were plated in 96-well ultra-low adsorption plates at 2000 cells and 190 µL/well. After overnight incubation, compound solutions of gradient concentrations were prepared, and 10 µL of the DMSO solution of each concentration of the compound to be tested was added to the cells in each well. Compound final concentrations were 10000, 3333.3, 1111.1, 370.4, 123.5, 41.2, 13.7, 4.6, 1.5, 0 nM (all final concentrations of DMSO were 0.25%). Incubate at 37° C., 5% CO2 for 96 h. Add 50 µL of Cell-titer Glo working solution to each well, incubate at room temperature for 10 min after shaking and mixing, read the Luminescence luminescence value with a multi-function microplate reader, and convert the luminescence value reading into the inhibition percentage:
Percent Inhibition = (Max-Reading)/(Max-Min)* 100. • “Max” is the DMSO control, • “Min” is the cell-free control.
Curve fitting was performed with Graphpad Prism software and IC50 values were obtained. See Table 1 for IC50 data on H358 cell inhibition by example compounds.

MIA PaCa-2 cells = test: Detection of cell proliferation inhibition, MIA PaCa-2 (Cell-titer Glo, 96 h); format: cell-based
Description: MIA PaCa-2 cells were plated in a 96-well ultra-low adsorption plate at 600 cells and 160 µL/well. After overnight incubation, compound solutions with gradient concentrations were prepared, and 40 µL of DMSO solutions of the compounds to be tested were added to each well of cells respectively. Compound final concentrations were 10000, 2000, 400, 80, 16, 3.2, 0.64, 0.12, 0.025, 0 nM (all final concentrations of DMSO were 0.25%). Incubate at 37° C., 5% CO2 for 96 h. Add 50 µL of Cell-titer Glo working solution to each well, shake and mix well, incubate at room temperature for 10 min, read the Luminescence luminescence value with a multi-function microplate reader, and convert the luminescence value reading into inhibition percentage: Percent Inhibition = (Max-Reading)/(Max-Min)* 100. • “Max” is the DMSO control; • “Min” is the cell-free control.
Curve fitting was performed with Graphpad Prism software and IC50 values were obtained. See Table 1for IC50 data for the inhibition of MIA PaCa-2 cells by the compounds of the examples.

[1] = Homo sapiens, NCI-H358, read-out: IC50 (nM) H358
[2] = Homo sapiens, read-out: IC50 (nM) MIA PaCa-2

Row | IC50 (H358 cells; [1]) [nM] | IC50 (MIA PaCa-2 cells; [2]) [nM] | IC50 (H358 cells; read-out: IC50 (nM) H358) [nM] | IC50 (MIA PaCa-2 cells; read-out: IC50 (nM) MIA PaCa-2) [nM] | Compound | other results
1 | 780 | 908 |  |  | C=C(F)C(=O)N1CCN(c2nc(=O)n(-c3c(C)ccnc3C(C)C)c3c4c(c(Cl)cc23)-c2c(ccc(F)c2F)CO4)[C@@H](C)C1 [Example 34, (S)-11-Chloro-9,10-Difluoro-1-(4-(2-Fluoroacryloyl)-2-Methylpiperazin-1-yl)-4-(2-Isopropyl-4-Methylpyridin-3-yl)-4H-Isochromo[4,3-h] Quinazolin-3(6H)-One] | 
2 | 889 | 442 |  |  | C=CC(=O)N1CCN(c2nc(=O)n(-c3c(C)ccnc3C(C)C)c3nc4c(cc23)OCc2ccccc2-4)[C@@H](C)C1 [Example 36, (S)-8-(4-Acryloyl-2-Methylpiperazin-1-yl)-11-(2-Isopropyl-4-Methylpyridin-3-yl) -5H-Isochromene[3’,4′:5,6]Pyrido[2,3-d]Pyrimidin-10(11H)-One] | 
3 | 532 | 292 |  |  | C=CC(=O)N1CCN(c2nc(=O)n(-c3c(C)ccnc3C(C)C)c3c4c(c(Cl)cc23)-c2cnccc2CO4)[C@@H](C)C1 [Example 23, (S)-1-(4-Acryloyl-2-Methylpiperazin-1-yl)-11-Chloro-4-(2-Isopropyl-4-Methylpyridine-3-yl)-4H-Pyridin[3’,4’:4,5]Pyrano[3.2-h]Quinazolin-3(6H)-One] | 
4 | 339 | 122 |  |  | C=CC(=O)N1CCN(c2nc(=O)n(-c3c(C)ccnc3C(C)C)c3c4c(c(F)cc23)-c2c(F)cccc2CO4)CC1CC#N (stereo not shown) [Example 25, 2-(1-Acryloyl-4-(10,11-Difluoro-4-(2-Isopropyl-4-Methylpyridin-3-yl)-3-Oxo-3,6-Dihydro-4H-Isochromene[4,3-h] Quinazolin-1-yl) Piperazin-2-yl)Acetonitrile] | 
5 |  |  | 137 | 70 | 10-((S)-4-(Acryloyl-2-Methylpiperazin-1-yl)-8-Fluoro-13-(2-Isopropyl-4-Methyl) Pyridin-3-yl)-2,3-Dihydrobenzo [4,5] Oxodipine [3,2-h] Quinolin-12(13H)One [Example 7] | 
6 |  |  | 191 | 63 | C=CC(=O)N1CCN(c2nc(=O)n(-c3c(C)ccnc3C(C)C)c3c(F)c4c(cc23)OCc2cccc(F)c2-4)[C@@H](C)C1 [Example 4, (S)-8-(Acryloyl-2-Methylpiperazin-1-yl)-1,12-Difluoro-11-(2-Isopropyl-4-Methylpyridin-3-yl)-5H-Isochromene[3,4-g] Quinazolin-10(11H)-One] | 
7 | 2490 | 1340 |  |  | C=CC(=O)N1CCN(c2nc(=O)n(-c3c(C)ccnc3C(C)C)c3nc4c(cc23)OCc2cccc(O)c2-4)[C@@H](C)C1 [Example 37, (S)-8-(4-Acryloyl-2-Methylpiperazin-1-yl)-1-Hydroxy-11-(2-Isopropyl-4-Methylpyridine-3-yl)-5 H-Isochromene [3’,4’:5,6] Pyrido [2,3-d] Pyrimidin 10(11H)-One] | 
8 | 3870 | 3110 |  |  | C=CC(=O)N1CCN(c2nc(=O)n(-c3c(C)ccnc3C(C)C)c3c(F)c4c(cc23)OCc2cccc(O)c2-4)[C@@H](C)C1 [Example 10, (S)-8-(Acryloyl-2-Methylpiperazin-1-yl)-12-Fluoro-1-Hydroxy-1l-(2-Isopropyl-4-Methylpyridin-3-yl)-5H-Isochromene[3,4-g]Quinazolin-10(11H)-One] | 
9 |  |  |  |  | C=CC(=O)N1CCN(c2nc(=O)n(-c3c(C)ccnc3C(C)C)c3c4c(c(F)cc23)-c2c(O)cccc2CO4)[C@@H](C)C1 [Example 9, (S)(Acryloyl-2-methylpiperazinyl)-11-fluoro-10-hydroxy-4-(2-isopropyl-4-methylpyridin-3-yl) -4 H-isochromene[4,3-h] quinazolin-3(6 H)-one] | IC50 (H358 cells; Homo sapiens, NCI-H358, read-out: IC50 H358): > 10000 nM; IC50 (MIA PaCa-2 cells; Homo sapiens, read-out: IC50 MIA PaCa-2): > 10000 nM
10 | 155 | 85 |  |  | C=CC(=O)N1CCN(c2nc(=O)n(-c3c(C)ccnc3C(C)C)c3c(F)c4c(cc23)OCCc2ccccc2-4)[C@@H](C)C1 [Example 8] | 
11 | < 50 | < 50 |  |  | C=CC(=O)N1CCN(c2nc(=O)n(-c3c(CC)cncc3CC)c3c4c(c(Cl)cc23)-c2c(F)cccc2CCO4)[C@@H](C)C1 [Example 31, 10-((S)-4-Actyloyl-2-Methylpiperazin-1-yl)-8-Chloro-13-(3,5-Diethylpyridin-4-yl)-7-Fluoro-2,3-Dihydrobenzo[4,5]Oxa[3,2-h]Quinazolin-12(13H)-One] | 
12 | 110 | 66 |  |  | C=CC(=O)N1CCN(c2nc(=O)n(-c3c(C(C)C)ncc4c3CCC4)c3c4c(c(Cl)cc23)-c2c(ccc(F)c2F)CO4)[C@@H](C)C1 [Example 27] | 
13 | 349 | 546 |  |  | C=CC(=O)N1CCN(c2nc(=O)n(-c3c(C)ccnc3C(C)C)c3c(F)c4c(cc23)OCc2cccc(F)c2-4)CC1CC#N (stereo not shown) [Example 26, 2-(1-Acryloyl-4-(1,12-Difluoro-11-(2-Isopropyl-4-Methylpyridin-3-yl)-10-Oxo-10,11-Dihydro-5H -Isochromene[3,4-g]Quinazolin-8-yl)Piperazin-2-yl)Acetonitrile] | 
14 |  |  | 78 | < 50 | C=CC(=O)N1CCN(c2nc(=O)n(-c3c(C)ccnc3C(C)C)c3c4c(c(F)cc23)-c2c(F)cccc2CO4)[C@@H](C)C1 [Example 3] | 
15 | 2040 | 964 |  |  | C=CC(=O)N1CCN(c2nc(=O)n(-c3c(C)ccnc3C(C)C)c3c4c(c(F)cc23)-c2c(cccc2OC)CO4)[C@@H](C)C1 [Example 11, (S)-1-(Acryloyl-2-Methylpiperazin-1-yl)-l1-Fluoro-10-Methoxy-4-(2-Isopropyl-4-Methylpyridin-3-yl)-4H-Isochromene[4,3-h] Quinazolin-3(6H)-one] | 
16 | < 50 | < 50 |  |  | C=CC(=O)N1CCN(c2nc(=O)n(-c3c(CC)ncnc3CC)c3c4c(c(Cl)cc23)-c2c(F)cccc2CCO4)[C@@H](C)C1 [Example 24] | 
17 | 690 | 1700 |  |  | C=CC(=O)N1CCN(c2nc(=O)n(-c3c(C)ccnc3C(C)C)c3c4c(c(F)cc23)-c2c(ccc3ccccc23)CO4)[C@@H](C)C1 [Example 21, (S)-1-(4-Acryloyl-2-Methylpiperazin-1-yl)-13-Fluoro-4-(2-Isopropyl-4-Methylpyridine-3-yl)-4H-Benzo[5,6] Isochromene[4,3-h]Quinazolin-3(6H)-one] | 
18 |  |  | < 50 | < 50 | C=CC(=O)N1CCN(c2nc(=O)n(-c3c(C)ccnc3C(C)C)c3c4c(c(C)cc23)-c2c(F)cccc2CO4)[C@@H](C)C1 [Example 15, (S)-1-(4-Acryloyl-2-Methylpiperazin-1-yl)-10-Fluoro-4-(2-Isopropyl-4-Methylpyridine-3-yl)-11-Methyl-4H-Isochromene[4,3-h] Quinazolin-3(6H)-One] | 
19 |  |  | 115 | < 50 | C=CC(=O)N1CCN(c2nc(=O)n(-c3c(C)ccnc3C(C)C)c3c4c(c(F)cc23)-c2c(Cl)cccc2CO4)[C@@H](C)C1 [Example 5, (S)-1-(Acryloyl-2-Methylpiperazin-1-yl)-10-Chloro-11-Fluoro-4-(2-Isopropyl-4-Methylpyridin-3-yl)-4H-Isochromene[4,3-h] Quinazolin-3(6H)-One] | 
20 | < 50 | < 50 |  |  | C=CC(=O)N1CCN(c2nc(=O)n(-c3c(C4CC4)ncnc3C3CC3)c3c4c(c(Cl)cc23)-c2c(F)cccc2CCO4)[C@@H](C)C1 [Example 32, 10-((S)-4-Acryloyl-2-Methylpiperazin-1-yl)-8-Chloro-13-(4,6-Dicyclopropylpyrimidine-5-Base)-7 -Fluoro-2,3-Dihydrobenzo[4,5] Oxa[3,2-h]Quinazolin-12(13H)-One] | 
21 | < 50 | < 50 |  |  | [2H]C1([2H])Oc2c(c(Cl)cc3c(N4CCN(C(=O)C=C)C[C@@H]4C)nc(=O)n(-c4c(C)ccnc4C(C)C)c23)-c2c1ccc(F)c2F [Example 35] | 
22 |  |  | 80.6 | < 50 | C=CC(=O)N1CCN(c2nc(=O)n(-c3c(C)ccnc3C(C)C)c3c4c(c(C(F)(F)F)cc23)-c2c(F)cccc2CO4)[C@@H](C)C1 [Example 16, (S)-1-(4-Acryloyl-2-Methylpiperazin-1-yl)-10-Fluoro-4-(2-Isopropyl-4-Methylpyridine-3-yl)-11-(Trifluoromethyl)-4H-Isochromene[4,3-h] Quinazolin-3(6H)-One] | 

Row | Compound | IC50 (H358 cells; [1]) [nM] | IC50 (MIA PaCa-2 cells; [2]) [nM] | IC50 (H358 cells; read-out: IC50 (nM) H358) [nM] | IC50 (MIA PaCa-2 cells; read-out: IC50 (nM) MIA PaCa-2) [nM] | other results
23 | C=CC(=O)N1CCN(c2nc(=O)n(-c3c(C)ccnc3C(C)C)c3c(F)c4c(cc23)OCc2cccc(Cl)c2-4)[C@@H](C)C1 [Example 6, (S)-8-(Acryloyl-2-Methylpiperazin-1-yl)-1-Chloro-12-Fluoro-11-(2-Isopropyl-4-Methylpyridin-3-yl)-5 H-Isochromene[3,4-g] Quinazolin-10(11 H)-one] |  |  | 496 | 272 | 

From patent US20230203055A1, “FUSED RING COMPOUND AND APPLICATION THEREOF IN MEDICINE” (Betta Pharmaceuticals Co., LTD, priority 2020, published 2023)
